The CheMixHub viscosity set

Assay: xn = mol fraction of the nth substance listed

CCNc1ccccc1 + CCCCCCCCO
viscosity [mPa·s], 101 kPa
Conditions | 303.15 K | 308.15 K | 313.15 K
x1 = 0.0802 | 5.589 | 4.869 | 3.822
x1 = 0.1625 | 5.024 | 4.381 | 3.478
x1 = 0.2541 | 4.463 | 3.898 | 3.134
x1 = 0.3514 | 3.937 | 3.445 | 2.808
x1 = 0.4421 | 3.504 | 3.071 | 2.537
x1 = 0.5012 | 3.248 | 2.851 | 2.375
x1 = 0.5741 | 2.96 | 2.601 | 2.19
x1 = 0.6214 | 2.787 | 2.451 | 2.078
x1 = 0.6952 | 2.538 | 2.235 | 1.915
x1 = 0.7412 | 2.395 | 2.112 | 1.822
x1 = 0.7954 | 2.238 | 1.975 | 1.717
x1 = 0.8412 | 2.114 | 1.867 | 1.635
x1 = 0.8921 | 1.984 | 1.756 | 1.549

ClCCl + COCCOCCOC
298.15 K, 101.33 kPa
Conditions | viscosity [mPa·s]
x2 = 0.097 | 0.546
x2 = 0.1505 | 0.593
x2 = 0.2008 | 0.636
x2 = 0.2942 | 0.711
x2 = 0.3997 | 0.79
x2 = 0.4508 | 0.817
x2 = 0.5008 | 0.843
x2 = 0.5555 | 0.87
x2 = 0.598 | 0.891
x2 = 0.6948 | 0.921
x2 = 0.7543 | 0.938
x2 = 0.8003 | 0.955
x2 = 0.8967 | 0.975
x2 = 0.9205 | 0.98

CCOC=O + CCCC(C)O
viscosity [mPa·s], 100 kPa
Conditions | x1 = 0.0826 | x1 = 0.1603 | x1 = 0.2396 | x1 = 0.3504 | x1 = 0.4402 | x1 = 0.5595 | x1 = 0.6497 | x1 = 0.74 | x1 = 0.8501 | x1 = 0.9381
293.15 K | 2.84 | 2.16 | 1.73 | 1.34 | 1.12 | 0.91 | 0.78 | 0.65 | 0.52 | 0.45
298.15 K | 2.5 | 1.96 | 1.57 | 1.23 | 1.02 | 0.85 | 0.73 | 0.6 | 0.49 | 0.43
303.15 K | 2.2 | 1.74 | 1.4 | 1.11 | 0.93 | 0.77 | 0.67 | 0.57 | 0.46 | 0.41
308.15 K | 1.9 | 1.53 | 1.23 | 0.98 | 0.84 | 0.7 | 0.6 | 0.52 | 0.43 | 0.39
313.15 K | 1.6 | 1.3 | 1.05 | 0.86 | 0.75 | 0.63 | 0.54 | 0.46 | 0.4 | 0.36
318.15 K | 1.32 | 1.06 | 0.89 | 0.73 | 0.64 | 0.54 | 0.47 | 0.41 | 0.36 | 0.33
323.15 K | 1.06 | 0.84 | 0.7 | 0.59 | 0.53 | 0.45 | 0.4 | 0.36 | 0.33 | 0.31

ClCCl + CCCCCC
298 K, 101 kPa
Conditions | viscosity [mPa·s]
x2 = 0.1331 | 0.386
x2 = 0.2381 | 0.367
x2 = 0.3208 | 0.354
x2 = 0.3873 | 0.346
x2 = 0.4407 | 0.34
x2 = 0.4419 | 0.34
x2 = 0.4746 | 0.335
x2 = 0.4862 | 0.335
x2 = 0.5144 | 0.333
x2 = 0.5244 | 0.332
x2 = 0.5599 | 0.329
x2 = 0.6138 | 0.324
x2 = 0.6791 | 0.32
x2 = 0.7601 | 0.314
x2 = 0.8633 | 0.308

C[Si]1(C)O[Si](C)(C)O[Si](C)(C)O[Si](C)(C)O1 + CCCCCCCCCC
viscosity [mPa·s], 103 kPa
Conditions | 298.15 K | 308.15 K | 318.15 K
x1 = 0.05 | 0.844 | 0.733 | 0.645
x1 = 0.1 | 0.867 | 0.753 | 0.664
x1 = 0.1501 | 0.899 | 0.778 | 0.683
x1 = 0.2 | 0.931 | 0.801 | 0.703
x1 = 0.25 | 0.965 | 0.831 | 0.725
x1 = 0.3 | 1.007 | 0.865 | 0.753
x1 = 0.35 | 1.047 | 0.895 | 0.778
x1 = 0.3999 | 1.086 | 0.93 | 0.802
x1 = 0.45 | 1.134 | 0.964 | 0.833
x1 = 0.5 | 1.183 | 1.006 | 0.867
x1 = 0.5501 | 1.232 | 1.048 | 0.909
x1 = 0.6 | 1.292 | 1.097 | 0.943
x1 = 0.65 | 1.358 | 1.15 | 0.987
x1 = 0.6999 | 1.431 | 1.209 | 1.035
x1 = 0.75 | 1.511 | 1.273 | 1.087
x1 = 0.8 | 1.6 | 1.345 | 1.145
x1 = 0.85 | 1.699 | 1.423 | 1.208
x1 = 0.9 | 1.811 | 1.511 | 1.278
x1 = 0.95 | 1.936 | 1.61 | 1.356

N=C(N)NCCC[C@H](N)C(=O)[O-].[Na+] + O
viscosity [mPa·s], 101 kPa
Conditions | x1 = 0.004484 | x1 = 0.008927 | x1 = 0.01333 | x1 = 0.0177 | x1 = 0.02202 | x1 = 0.02631
293.15 K | 1.199 | 1.453 | 1.745 | 2.107 | 2.501 | 2.956
303.15 K | 0.963 | 1.149 | 1.361 | 1.615 | 1.907 | 2.248
313.15 K | 0.78 | 0.925 | 1.087 | 1.278 | 1.493 | 1.744
323.15 K | 0.645 | 0.759 | 0.881 | 1.033 | 1.201 | 1.384

CCOC(N)=O + c1ccncc1
298.15 K, 101 kPa
Conditions | viscosity [mPa·s]
x1 = 0.0815 | 1.07
x1 = 0.1351 | 1.202
